These results are taken from EP2149552A1, “5,6 substituted benzamide derivatives as modulators of EP2 receptors” (Bayer Schering Pharma Aktiengesellschaft, priority 2008, dated 2010).

In one test the test system is Kumulus-Eizell Komplexe. Kind of test: cumulus expansion test in vitro. The class given is cell-based, Mäusen. As to conditions: competing with the natural agonist PGE2. The source says:
In immaturen weiblichen Mäusen (Stamm : CD1 (ICR) von Charles River) wurde in einem Alter von 14 - 18 Tagen die Follikulogenese durch eine einmalige Gabe (intraperitoneal) von 10 I.E. PMSG (Pregnant Mare Serum Gonadotropine; Sigma G-4877, Lot 68H0909) induziert. 47 - 50 Stunden nach der Injektion wurden die Ovarien entnommen und die Kumulus-Eizell Komplexe entnommen. Der Kumulus Komplex ist in diesem Stadium noch nicht expandiert.
Die Kumulus-Eizell Komplexe wurden nun für 20-24 Stunden mit Prostaglandin E2 (PGE2) (0,3 µM), Vehikel Kontrolle (Ethanol) oder Testsubstanzen inkubiert. Medium: alpha- MEM Medium mit 0,1 mM IBMX, Pyruvate (0,23 mM) Glutamine (2 mM), Pen/Strep 100 IU/ml Pen. und 100 µg/ml Strep.) und HSA (8 mg/ml). Danach wurde die Kumulus Expansion durch die Einteilung in vier Stadien (nach Vanderhyden et al. Dev Biol. 1990 Aug;140(2):307-317) festgestellt. Tabelle 1: Beispiel für die biologische Wirksamkeit der erfindungsgemäßen Verbindungen (gemessen mittels cAMP Antagonismustest): […]

The target in test [1] is T1, EP2-Subtyp des humanen PGE2-Rezeptors (Homo sapiens, UniProt P43116).
T1 construct: host or cells: cells in a culture plate
T1 sequence (P43116 whole entry): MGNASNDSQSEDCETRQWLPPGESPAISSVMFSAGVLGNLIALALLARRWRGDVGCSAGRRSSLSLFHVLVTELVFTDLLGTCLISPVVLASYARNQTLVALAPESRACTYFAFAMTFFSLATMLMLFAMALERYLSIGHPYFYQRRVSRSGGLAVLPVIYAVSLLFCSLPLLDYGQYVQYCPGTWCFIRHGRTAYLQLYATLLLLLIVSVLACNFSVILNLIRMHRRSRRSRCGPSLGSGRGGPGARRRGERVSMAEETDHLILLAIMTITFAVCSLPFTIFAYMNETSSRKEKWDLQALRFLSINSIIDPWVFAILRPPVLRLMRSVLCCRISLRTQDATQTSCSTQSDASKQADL
Kind of test: cAMP antagonism test (HTRF cAMP detection, PGE2-stimulated cells). The format is cell-based. Particulars: cAMP Antagonismustest, in presence of agonist PGE2; read-out: Antagonismus [IC50. The text has this: Die Bindung von PGE2 an den EP2-Subtyp des humanen PGE2-Rezeptors induziert die Aktivierung membranständiger Adenylatzyklasen und führt zur Bildung von cAMP. In Gegenwart des Phosphodiesteraseinhibitors IBMX wird das durch diese Stimulation akkumulierte und mittels Zell-Lyse freigesetzte cAMP in einem kompetitiven Nachweisverfahren eingesetzt. In diesem Test konkurriert das cAMP im Lysat mit cAMP-XL665 um die Bindung eines Eu-Kryptat markierten Anti-cAMP Antikörpers.
Dabei entsteht in Abwesenheit von zellulärem cAMP ein maximales Signal, welches auf der Kopplung dieses Antikörpers an das cAMP-XL665 Molekül beruht. Dadurch entsteht nach Anregung bei 337 nm ein auf FRET (fluorescence resonance energy transfer) basierendes, langanhaltendes Emissionssignal bei 665 nm (und bei […]). Beide Signale werden in einem geeigneten Messgerät zeitlich versetzt, d.h. nach Abklingen der Hintergrundsfluoreszenz gemessen. Jegliche Erhöhung des durch Prostglandin-E2-Gabe bedingten niedrigen FRET-Signals (gemessen als Well-Ratio-Veränderung = Emission665nm/Emission620nm * 10000) zeigt die Wirkung von Antagonisten.
Die in einer Testplatte und 30 % DMSO vorgelegten Substanzlösungen (0.75 µl) wurden in 16 µl einer KRSB+IBMX-Stimulationslösung gelöst (1 X Krebs-Ringer Bicarbonate Buffer; Sigma-Aldrich # K-4002; inklusive 750 µM 3-Isobutyl-1-methylxanthine Sigma-Aldrich # I-7018), anschließend wurden 15 µl davon in eine medienfreie Zellkulturplatte überführt, die kurz zuvor mit KRSB gewaschen worden war.
Nach einer 30-minütigen Vorinkubation bei Raumtemperatur (RT) wurden 5 µl einer 4xPGE2 Lösung (11 nM) zugegeben und in Gegenwart des Agonisten für weitere 60 min bei RT inkubiert (Volumen: ∼ 20 µl), bevor die Reaktion anschließend durch Zugabe von 5 µl Lysispuffer gestoppt und für weitere 20 min bei RT inkubiert wurde (Volumen: ∼ 25 µl). Das Zell-Lysat wurde anschließend in eine Messplatte überführt und entsprechend den Herstellerangaben (cyclic AMP kit Cisbio International # 62AMPPEC) gemessen.
For orientation: Time-resolved FRET reads energy transfer from a long-lived donor to a nearby acceptor.

Test [2] has as its target T1, EP2-Subtyp des humanen PGE2-Rezeptors. Kind of test: cellular cAMP agonism test (without PGE2). The format is cell-based.

As for `CC(C)Oc1ccc2c(=O)c3cc(C(=O)O)ccc3oc2c1` [AH 6809, reference compound], the “Unterdrückung der Kumulus Expansion” value with Kumulus-Eizell Komplexe (100 - 200 µM) is recorded as “ca. 30%”.
Regarding `COc1ccc(C(=O)NCCc2c(C)[nH]c3c(F)cc(Br)c(C)c23)cc1OC` [Beispiel 8, N-[2-(5-Brom-7-fluor-2,4-dimethyl-1H-indol-3-yl)-ethyl]-3,4-dimethoxy-benzamid], the IC50 (usually the concentration that gives 50% inhibition) in test [1] came to 1800 nM.
In the case of `COc1ccc(C(=O)NCCc2c(C)[nH]c3c(F)cc(F)cc23)cc1OC` [Beispiel 3, N-[2-(5,7-Difluor-2-methyl-1H-indol-3-yl)-ethyl]-3,4-dimethoxy-benzamid], the IC50 in test [1] was found to be 700 nM.
On the same count and under the same terms, the result for `Cc1[nH]c2c(F)c(Cl)ccc2c1CCNC(=O)c1cc2cc(F)ccc2[nH]1` [Beispiel 6, 5-Fluor-1H-indol-2-carbonsäure [2-(6-chlor-7-fluor-2-methyl-1H-indol-3-yl)-ethyl]-amid] reads 200 nM; that for `Cc1[nH]c2c(F)c(F)ccc2c1CCNC(=O)c1cc2cc(Cl)ccc2[nH]1` [Beispiel 5, 5-Chlor-1H-indol-2-carbonsäure [2-(6,7-difluor-2-methyl-1H-indol-3-yl)-ethyl]-amid], 71 nM.
Consider `Cc1[nH]c2c(F)cc(Br)cc2c1CCNC(=O)c1cc2cc(F)ccc2[nH]1` [Beispiel 10, 5-Fluor-1H-indol-2-carbonsäure [2-(5-brom-7-fluor-2-methyl-1H-indol-3-yl)-ethyl]-amid], for which the IC50 in test [1] is 82 nM. The “Wirkung im zellulären Agonismustest” value in test [2] is “keine Inhibition”. In the test on Kumulus-Eizell Komplexe (5 µM), the “Unterdrückung der Kumulus Expansion” value was “ca. 75%”.
